Like-named read-outs stand apart in the source and are kept apart here.
Legend:
[1] = biological target: T1, elastase from porcine pancreas (Sus scrofa, UniProt P00772); experiment: elastase inhibition assay; type: biochemical; parameters: key: - not active; */** small/medium activity; */** small/medium activity; settings: highest concentration 45.4 μg/mL
T1 construct: purchased Sigma-Aldrich E0258; host or cells: porcine pancreas

Thrombin = biological target: T2, Thrombin (Bos taurus, UniProt P00735); experiment: thrombin inhibition assay; type: biochemical; parameters: key: - not active; */** small/medium activity; */** small/medium activity; settings: highest concentration 45.4 μg/mL
T2 construct: purchased Sigma-Aldrich T4648

[2] = biological target: α-chymotrypsin from bovine pancreas (Bos taurus, UniProt P00766); experiment: chymotrypsin inhibition assay; type: biochemical; parameters: key to Enzyme Inhibition Chymotrypsin (activity class): - not active; */** small/medium activity; */** small/medium activity; settings: class symbols
[3] = biological target: T3, protein phosphatase 1 (PP1) (Oryctolagus cuniculus, UniProt P62139); experiment: protein phosphatase 1 inhibition assay; type: biochemical; parameters: key: - not active; */** small/medium activity; */** small/medium activity; settings: highest concentration 45.4 μg/mL
T3 construct: purchased England Biolabs, Hitchin, UK (New England Biolabs) 754S

[4] = biological target: T4, trypsin from porcine pancreas (Sus scrofa, UniProt P00761); experiment: trypsin inhibition assay; type: biochemical; parameters: key: - not active; */** small/medium activity; */** small/medium activity; settings: class symbols
T4 construct: purchased Sigma-Aldrich T0303; host or cells: porcine pancreas

[5] = biological target: human leukocyte elastase (HLE); parameters: method as in PMID 18924217; settings: activity of extracts; read-out: Enzyme Inhibition HLE IC50; cited from earlier work
Chymotrypsin = settings: cited from earlier work

T3 sequence (P62139 whole entry): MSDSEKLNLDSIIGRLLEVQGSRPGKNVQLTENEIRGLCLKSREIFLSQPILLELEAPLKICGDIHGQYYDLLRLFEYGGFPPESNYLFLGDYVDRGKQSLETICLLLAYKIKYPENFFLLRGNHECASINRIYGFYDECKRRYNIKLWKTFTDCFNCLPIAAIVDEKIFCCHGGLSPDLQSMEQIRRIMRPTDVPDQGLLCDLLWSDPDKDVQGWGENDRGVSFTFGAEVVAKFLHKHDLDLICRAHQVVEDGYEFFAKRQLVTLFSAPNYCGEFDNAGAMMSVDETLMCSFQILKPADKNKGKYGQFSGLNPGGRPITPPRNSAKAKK
T4 sequence (P00761 9-231): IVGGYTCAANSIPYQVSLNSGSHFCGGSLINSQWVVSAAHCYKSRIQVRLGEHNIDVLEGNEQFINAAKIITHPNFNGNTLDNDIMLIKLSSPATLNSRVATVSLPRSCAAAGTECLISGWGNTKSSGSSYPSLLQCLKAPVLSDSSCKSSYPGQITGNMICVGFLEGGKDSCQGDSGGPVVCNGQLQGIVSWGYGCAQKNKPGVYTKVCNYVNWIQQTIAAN
T1 sequence (P00772 27-266): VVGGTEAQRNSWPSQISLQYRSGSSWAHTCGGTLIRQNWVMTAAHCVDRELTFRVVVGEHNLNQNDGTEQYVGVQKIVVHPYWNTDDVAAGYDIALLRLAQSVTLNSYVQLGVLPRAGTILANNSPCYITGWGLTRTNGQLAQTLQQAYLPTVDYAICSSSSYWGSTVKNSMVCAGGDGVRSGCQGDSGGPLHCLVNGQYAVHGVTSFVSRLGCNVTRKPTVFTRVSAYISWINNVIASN

With `CCCCCC(=O)N[C@@H](CC(=O)O)C(=O)N[C@@H]1C(=O)N[C@@H](CCCNC(=N)N)C(=O)N[C@H]2CC[C@@H](O)N(C2=O)[C@@H](Cc2ccccc2)C(=O)N(C)[C@@H](Cc2ccccc2)C(=O)N[C@@H](C(C)C)C(=O)O[C@@H]1C` [CP 990, [Thr+Arg+Ahp+Phe+MePhe+Val]Asp+HA] the “Enzyme Inhibition Elastase (activity class)” value (“Enzyme Inhibition Elastase” for short) [1] was “-”, the “Enzyme Inhibition Thrombin (activity class)” value (“Enzyme Inhibition Thrombin” for short) (Thrombin) was “-” and the “Enzyme Inhibition Chymotrypsin (activity class)” value (shortened to “Enzyme Inhibition Chymotrypsin”) [2] was “-”. The “Enzyme Inhibition Protein Phosphatase 1 (activity class)” value [3] was “-” and the “Enzyme Inhibition Trypsin (activity class)” value (from here on “Enzyme Inhibition Trypsin”) [4] was “**”.
For `CCCC(=O)N[C@@H](CC(=O)O)C(=O)N[C@@H]1C(=O)N[C@@H](Cc2ccc(O)cc2)C(=O)N[C@H]2CC[C@@H](O)N(C2=O)[C@@H](Cc2ccccc2)C(=O)N(C)[C@@H](CCc2ccc(O)cc2)C(=O)N[C@@H](C(C)C)C(=O)O[C@@H]1C` [CP 999, [Thr+Tyr+Ahp+Phe+MeHty+Val]Asp+BA], the “Enzyme Inhibition Thrombin” value (Thrombin) was “-”, the “Enzyme Inhibition Chymotrypsin” value [2] was “**” and the “Enzyme Inhibition Protein Phosphatase 1 (activity class)” value [3] was “-”. For the same molecule, the “Enzyme Inhibition Trypsin” value [4] was “-”.
In the case of `CC[C@H](C)[C@H]1C(=O)N(C)[C@@H](Cc2ccc(OC)cc2)C(=O)N[C@@H](C(C)C)C(=O)O[C@@H]2[C@H](C)CN(C(=O)[C@H](CCCNC(N)=O)NC(C)=O)[C@@H]2C(=O)N[C@@H](CC(C)C)C(=O)N[C@H]2CC[C@@H](O)N1C2=O` [Insulapeptolide C, [Hmp+Leu+Ahp+Ile+diMeTyr+Val]Cit+Ac], the IC50 [5] is listed as 90 nM.
For `CC[C@H](C)[C@@H]1NC(=O)[C@H](Cc2ccc(O)cc2)N(C)C(=O)[C@H](Cc2ccccc2)N2C(=O)[C@H](CC[C@H]2O)NC(=O)[C@H](Cc2ccccc2)NC(=O)[C@@H](NC(=O)[C@@H](O)COP(=O)(O)O)[C@@H](C)OC1=O` [micropeptin T20], the IC50 (Chymotrypsin; read-out: chymotrypsin IC50) is given as 2.5 nM.
For `CC(=O)N[C@@H](CCC(N)=O)C(=O)N[C@@H]1C(=O)N[C@@H](CC(C)C)C(=O)N[C@H]2CC[C@@H](O)N(C2=O)[C@@H](Cc2ccccc2)C(=O)N(C)[C@@H](Cc2ccc(O)cc2)C(=O)N[C@@H](C(C)C)C(=O)O[C@@H]1C` [Nostopeptin BN920, [Thr+Leu+Ahp+Phe+MeTyr+Val]Gln+Ac], the IC50 (Chymotrypsin; read-out: Enzyme Inhibition Chymotrypsin IC50) is given as 110 nM.
With `CCCCCCCC(=O)N[C@@H](CC(=O)O)C(=O)N[C@@H]1C(=O)N[C@@H](CCCNC(=N)N)C(=O)N[C@H]2CC[C@@H](O)N(C2=O)[C@@H](Cc2ccccc2)C(=O)N(C)[C@@H](CCc2ccc(O)cc2)C(=O)N[C@@H](C(C)C)C(=O)O[C@@H]1C` [CP 1048, [Thr+Arg+Ahp+Phe+MeHty+Val]Asp+OA] the “Enzyme Inhibition Elastase” value [1] was “-”, the “Enzyme Inhibition Thrombin” value (Thrombin) was “-” and the “Enzyme Inhibition Chymotrypsin” value [2] was “*”. For the same molecule, the “Enzyme Inhibition Protein Phosphatase 1 (activity class)” value [3] was “-” and the “Enzyme Inhibition Trypsin” value [4] was “**”.
With `CCCCCC(=O)N[C@@H](CC(=O)O)C(=O)N[C@@H]1C(=O)N[C@@H](Cc2ccc(O)cc2)C(=O)N[C@H]2CC[C@@H](O)N(C2=O)[C@@H](Cc2ccccc2)C(=O)N(C)[C@@H](Cc2ccc(O)cc2)C(=O)N[C@@H](C(C)C)C(=O)O[C@@H]1C` [CP 1013, [Thr+Tyr+Ahp+Phe+MeTyr+Val]Asp+HA] the “Enzyme Inhibition Elastase” value [1] was “-”, the “Enzyme Inhibition Thrombin” value (Thrombin) was “-” and the “Enzyme Inhibition Chymotrypsin” value [2] was “**”. The “Enzyme Inhibition Protein Phosphatase 1 (activity class)” value [3] was “-” and the “Enzyme Inhibition Trypsin” value [4] was “-”.
For “[Thr+Hph+Ahp+Thr+MePhe+Val]Ser+Pro+BA [Insulapeptolide G]”, the IC50 [5] is given as 3500 nM.
In the case of `CCCC(=O)N[C@@H](CC(=O)O)C(=O)N[C@@H]1C(=O)N[C@@H](CCCNC(=N)N)C(=O)N[C@H]2CC[C@@H](O)N(C2=O)[C@@H](Cc2ccccc2)C(=O)N(C)[C@@H](CCc2ccc(O)cc2)C(=O)N[C@@H](C(C)C)C(=O)O[C@@H]1C` [CP 992, [Thr+Arg+Ahp+Phe+MeHty+Val]Asp+BA], the “Enzyme Inhibition Elastase” value [1] is reported as “-”, the “Enzyme Inhibition Thrombin” value (Thrombin) is reported as “-” and the “Enzyme Inhibition Protein Phosphatase 1 (activity class)” value [3] is reported as “-”.
For “[Hmp+Leu+Ahp+Ile+MeTyr+Val]Cit+Ac [Insulapeptolide A]”, the IC50 [5] is given as 140 nM.
With `CCCCCC(=O)N[C@@H](CC(=O)O)C(=O)N[C@@H]1C(=O)N[C@@H](Cc2ccc(O)cc2)C(=O)N[C@H]2CC[C@@H](O)N(C2=O)[C@@H](Cc2ccccc2)C(=O)N(C)[C@@H](CCc2ccc(O)cc2)C(=O)N[C@@H](C(C)C)C(=O)O[C@@H]1C` [CP 1027, [Thr+Tyr+Ahp+Phe+MeHty+Val]Asp+HA] the “Enzyme Inhibition Elastase” value [1] was “-”, the “Enzyme Inhibition Thrombin” value (Thrombin) was “-” and the “Enzyme Inhibition Protein Phosphatase 1 (activity class)” value [3] was “-”. The “Enzyme Inhibition Trypsin” value [4] was “-”.
For “[Thr+Hph+Ahp+Thr+MeTyr+Val]Ser+Pro+BA [Insulapeptolide F]”, the IC50 [5] is listed as 1600 nM.
For `CCCC(=O)N[C@@H](CC(=O)O)C(=O)N[C@@H]1C(=O)N[C@@H](CCCNC(=N)N)C(=O)N[C@H]2CC[C@@H](O)N(C2=O)[C@@H](Cc2ccccc2)C(=O)N(C)[C@@H](Cc2ccc(O)cc2)C(=O)N[C@@H](C(C)C)C(=O)O[C@@H]1C` [CP 978, [Thr+Arg+Ahp+Phe+MeTyr+Val]Asp+BA], the “Enzyme Inhibition Elastase” value [1] was “-”, the “Enzyme Inhibition Thrombin” value (Thrombin) was “-” and the “Enzyme Inhibition Protein Phosphatase 1 (activity class)” value [3] was “-”.
In the case of `CCCCCCCC(=O)N[C@@H](CC(=O)O)C(=O)N[C@@H]1C(=O)N[C@@H](CCCNC(=N)N)C(=O)N[C@H]2CC[C@@H](O)N(C2=O)[C@@H](Cc2ccccc2)C(=O)N(C)[C@@H](Cc2ccccc2)C(=O)N[C@@H](C(C)C)C(=O)O[C@@H]1C` [CP 1018, [Thr+Arg+Ahp+Phe+MePhe+Val]Asp+OA], the “Enzyme Inhibition Elastase” value [1] is reported as “-”, the “Enzyme Inhibition Thrombin” value (Thrombin) is reported as “-” and the “Enzyme Inhibition Chymotrypsin” value [2] is reported as “-”. For the same molecule, the “Enzyme Inhibition Protein Phosphatase 1 (activity class)” value [3] was “-”.
In the case of “[Thr+Hph+Ahp+Thr+MeTyr+Ile]Ser+Pro+BA [Insulapeptolide H]”, the IC50 [5] is given as 2700 nM.
With `CCCCCC(=O)N[C@@H](CC(=O)O)C(=O)N[C@@H]1C(=O)N[C@@H](CCCNC(=N)N)C(=O)N[C@H]2CC[C@@H](O)N(C2=O)[C@@H](Cc2ccccc2)C(=O)N(C)[C@@H](Cc2ccc(O)cc2)C(=O)N[C@@H](C(C)C)C(=O)O[C@@H]1C` [CP 1006, [Thr+Arg+Ahp+Phe+MeTyr+Val]Asp+HA] the “Enzyme Inhibition Elastase” value [1] was “-”, the “Enzyme Inhibition Thrombin” value (Thrombin) was “-” and the “Enzyme Inhibition Chymotrypsin” value [2] was “*”. For the same molecule, the “Enzyme Inhibition Protein Phosphatase 1 (activity class)” value [3] was “-” and the “Enzyme Inhibition Trypsin” value [4] was “**”.
In the case of “[Thr+Hph+Ahp+Thr+MeTyr+Ile]Ser+Pro+BA [Insulapeptolide E]”, the IC50 [5] is listed as 3200 nM.
For “[Hmp+Leu+Ahp+Leu+MeTyr+Ile]Cit+Ac [Insulapeptolide B]”, the IC50 [5] is given as 100 nM.
With `CCCC(=O)N[C@@H](CC(=O)O)C(=O)N[C@@H]1C(=O)N[C@@H](Cc2ccc(O)cc2)C(=O)N[C@H]2CC[C@@H](O)N(C2=O)[C@@H](Cc2ccccc2)C(=O)N(C)[C@@H](Cc2ccccc2)C(=O)N[C@@H](C(C)C)C(=O)O[C@@H]1C` [CP 969, [Thr+Tyr+Ahp+Phe+MePhe+Val]Asp+BA] the “Enzyme Inhibition Elastase” value [1] was “-”, the “Enzyme Inhibition Thrombin” value (Thrombin) was “-” and the “Enzyme Inhibition Chymotrypsin” value [2] was “**”. For the same molecule, the “Enzyme Inhibition Protein Phosphatase 1 (activity class)” value [3] was “-” and the “Enzyme Inhibition Trypsin” value [4] was “-”.
In the case of “[Hmp+Leu+Ahp+Ile+diMeTyr+Ile]Cit+Ac [Insulapeptolide D]”, the IC50 [5] is listed as 85 nM.

From publication PMC6070996 (Marine Drugs, 2018)
